{
  "source": "patent US12054744B2",
  "about": "“NK cells exhibiting an adaptive phenotype and methods for preparing and for using” (Regents of the University of Minnesota, priority 2015, dated 2024)",
  "type_in_all_cases": "cell-based, human",
  "key": {"CD155 on monocytes": {"system": "CD155 on monocytes", "assay": "ROS induction in monocytes by H2O2, staining for ROS, CD112 and CD155", "conditions": "H2O2 250 μM", "method": "(§1) MDSCs were induced from healthy blood donor PBMC with IL-6 (10 ng/mL) and GM-CSF (10 ng/mL) for 7 days, bead-depleted for HLA-DR, and enriched for CD33. FIG. 13A. MDSCs and freshly isolated monocytes were stained for the antigens shown. One representative example from independent experiments is shown. FIG. 13B. Induced MDSCs were stained for CD155 and analyzed by flow cytometry following overnight treatment with superoxide dismutase (SOD, 200 IU/mL), arginase inhibitor (a-ARG, arginase inhibitor N(ω)-hydroxy-nor-L-arginine, 500 μM), ROS scavenger (Catalase, 200 international units per milliliter (IU/mL)), blocking antibodies against TGF-β (10 μg/mL), iNOS inhibitor (aiNOS, NG-monomethyl-1-arginine, 500 micromolar (μM)), or left untreated. Pooled (n=4) data is shown as mean±SEM, and statistical analysis were done using the Student's t-test. FIG. 13C. Unstimulated monocytes and MDSCs were stained for total ROS and analyzed by flow cytometry. FIG. 13D. Unstimulated or H2O2 (250 μM) monocytes and unstimulated MDSCs were stained for total ROS, CD112, and CD155 and analyzed by flow cytometry. Cells double positive for ROS and CD112 or CD155 are shown. One representative donor of six is shown. One representative isotype control is shown for all groups for simplicity as individual controls were similar between conditions. […]"}, "[1]": {"system": "PLZF expression in cord blood-derived CD56^dim NK cells", "assay": "Intracellular PLZF staining of cord blood-derived CD56^dim NK cells after 14 days in culture", "conditions": "high-dose IL-15, IL-21 where added", "method": "FIG. 6A. FACS plots of intracellular PLZF expression in cord blood-derived CD56^dim NK cells from a representative donor after 14 days in the indicated culture conditions. FIG. 6B. Cumulative data showing the percentage of PLZF″ NK cells after 14 days in each culture condition from 6 donors. Two independent experiments were performed. Error bars represent SEM.\nMononuclear cells were isolated from whole cord blood by density gradient centrifugation. T cells and B cells were depleted by positive magnetic selection using anti-CD3 and anti-CD19 microbeads, respectively. CD3/CD19-depleted cells were then added to irradiated OP9 cells at a concentration of 5×10^5 cells/well and cultured for 14 days in RPMI media+10% FBS supplemented with either 1 ng/mL IL-15 or 10 ng/mL IL-15 with or without 50 ng/mL IL-21.\nCord blood-derived NK cells were analyzed before culture and after 7 and 14 days of culture by fluorescence activated cell sorting (FACS) using the following extracellular and intracellular antibodies: BV785-conjugated anti-CD3 (BioLegend, San Diego, CA), PE-Cy7-conjugated anti-CD56 (BioLegend, San Diego, CA), BV605-conjugated anti-CD57 (BioLegend, San Diego, CA), APC-conjugated SYK (eBioscience, San Diego, CA), and PE-conjugated anti-PLZF (BD Biosciences, San Jose, CA).\nTranscriptional silencing of the transcription factor promyelocytic leukemia zinc finger (PLZF) is a hallmark of adaptive NK cells that expand in response to CMV infection (Schlums et al. Immunity. 2015; 42(3):443-456). Intracellular staining for PLZF was performed in NK cells from freshly isolated mononuclear cells and from cells that were cultured for 14 days in vitro. Freshly isolated CD56^dimSYK^− NK cells from cord blood were predominantly PLZF-positive (99.3%±0.10). […] Therefore, IL-21 drives down PLZF expression in CD56^dimSYK^− NK cells, causing these cells to acquire adaptive characteristics (FIG. 6)."}, "CD155 on MDSCs": {"system": "CD155 on MDSCs", "assay": "CD155 staining of induced MDSCs after overnight treatment with inhibitors of MDSC pathways", "conditions": "catalase 200 IU/mL overnight", "method": "as §1, with “FIG. 13C.” left out, “FIG. 13D.” left out, “cytometry.” for “cytometry. Cells double positive for ROS and CD112 or CD155 are shown. One representative donor of six is shown. One representative isotype control is shown for all groups for simplicity as individual controls were similar between conditions.”\nPurified NK cells or MDS PBMC (FIG. 17) cultured with monocytes or MDSCs for different time points and with different stimuli were resuspended in staining buffer (PBS containing 0.5% human AB serum) and stained with fluorochrome-conjugated antibodies (Table IV). […] All cells were acquired by LSRII and analyzed by FlowJo. […]"}, "pZAP70/Syk and pERK1/2": {"system": "pZAP70/Syk and pERK1/2", "assay": "Phosflow of pZAP70/Syk and pERK1/2 in NK cells co-cultured with MDSCs", "conditions": "NK cells co-cultured with MDSCs 5 days; anti-TIGIT 10 ug/mL or catalase 200 IU/mL; anti-CD16 stimulation", "method": "(§2) Purified NK cells from healthy blood donors were co-cultured with autologous MDSCs or freshly isolated monocytes at a 2:1 ratio in the presence of IL-15 (10 ng/mL) and in the presence or absence of blocking antibodies against TIGIT (10 μg/mL), or catalase (200 IU/mL) for 5 days. Cells were then washed, rested for 4 hours, stimulated for 10 and 30 min with anti-CD16, and stained for pZAP/Syk or pERK1/2 respectively. Representative (FIG. 14A) or cumulative (FIG. 14B) data are shown from 3 independent experiments as mean±SEM. Statistical analysis was done using the Student's t-test. FIG. 14C. NK cells from monocyte and MDSC co-cultures in the presence or absence of anti-TIGIT or catalase were washed and incubated with 51 Cr-labeled K562 for 4 hours to assess NK cell cytotoxicity. Representative data from 3 independent experiments is shown as mean±SEM.\nGiven the strong suppressive effect of TIGIT engagement on conventional NK cell function and proliferation, the CD16 induced signaling interaction with TIGIT in NK cells co-cultured with MDSC was analyzed. […] To investigate whether blocking TIGIT or ROS could recover the function of NK cells cultured with MDSCs in cytotoxicity assays, NK cells were cultured with either monocytes or MDSCs were pre-treated with TIGIT blockade or catalase, washed, and then incubated with 51 Cr-labeled K562 cells. […]"}, "K562": {"system": "K562", "assay": "Chromium (51Cr) release assay against K562", "conditions": "anti-TIGIT 10 ug/mL or catalase 200 IU/mL", "method": "as §2, with “NK cells from monocyte and MDSC co-cultures in the presence or absence of anti-TIGIT or catalase were washed and incubated with 51 Cr-labeled K562 for 4 hours to assess NK cell cytotoxicity. Representative data from 3 independent experiments is shown as mean±SEM.” left out\nGiven the strong suppressive effect of TIGIT engagement on conventional NK cell function and proliferation, the CD16 induced signaling interaction with TIGIT in NK cells co-cultured with MDSC was analyzed. […]\nFollowing 5 days of co-culture with monocytes or MDSCs in the presence or absence of blocking antibodies against TIGIT (10 ug/mL) or ROS scavenger catalase (200 IU/mL), NK cell cytotoxicity was analyzed by chromium (51 Cr) release assays (4 hours) against K562 (ATCC, Manassas, VA) cells at a 5:1-2.5:1 effector:target ratios. 51 Cr release was measured by a γ scintillation counter (Perkin Elmer, Waltham, MA), and specific target lysis was determined."}},
  "data": [
    {"molecule": "OO", "note": "[H2O2]", "values": [
      {"measurement": "expression of CD155 in ROS^+ monocytes", "setting": "CD155 on monocytes", "result": "induce the expression of CD155"}
    ]},
    {"molecule": "IL-21: cytokine added at 50 ng/mL to IL-15 cultures", "values": [
      {"measurement": "decrease in PLZF expression (percentage of PLZF-negative NK cells)", "setting": "[1]; CD56^dimCD57^+SYK^+ NK cells", "result": "12.13%±2.43"},
      {"measurement": "decrease in PLZF expression (percentage of PLZF-negative NK cells)", "setting": "[1]; CD56^dimCD57^+SYK^− NK cells", "result": "66.0%±8.86"},
      {"measurement": "decrease in PLZF expression (percentage of PLZF-negative NK cells)", "setting": "[1]; CD56^dimCD57^−SYK^+ NK cells", "result": "14.92%±1.80"},
      {"measurement": "decrease in PLZF expression (percentage of PLZF-negative NK cells)", "setting": "[1]; CD56^dimCD57^−SYK^− NK cells", "result": "35.82%±7.02"}
    ]},
    {"molecule": "catalase: ROS scavenger catalase (Sigma-Aldrich), 200 IU/mL (protein, UniProt P00432 2-527, looked up) Catalase: ADNRDPASDQMKHWKEQRAAQKPDVLTTGGGNPVGDKLNSLTVGPRGPLLVQDVVFTDEMAHFDRERIPERVVHAKGAGAFGYFEVTHDITRYSKAKVFEHIGKRTPIAVRFSTVAGESGSADTVRDPRGFAVKFYTEDGNWDLVGNNTPIFFIRDALLFPSFIHSQKRNPQTHLKDPDMVWDFWSLRPESLHQVSFLFSDRGIPDGHRHMNGYGSHTFKLVNANGEAVYCKFHYKTDQGIKNLSVEDAARLAHEDPDYGLRDLFNAIATGNYPSWTLYIQVMTFSEAEIFPFNPFDLTKVWPHGDYPLIPVGKLVLNRNPVNYFAEVEQLAFDPSNMPPGIEPSPDKMLQGRLFAYPDTHRHRLGPNYLQIPVNCPYRARVANYQRDGPMCMMDNQGGAPNYYPNSFSAPEHQPSALEHRTHFSGDVQRFNSANDDNVTQVRTFYLKVLNEEQRKRLCENIAGHLKDAQLFIQKKAVKNFSDVHPEYGSRIQALLDKYNEEKPKNAVHTYVQHGSHLSAREKANL", "values": [
      {"measurement": "decrease in the expression of CD155 on MDSCs", "setting": "CD155 on MDSCs", "result": "55%±23"},
      {"measurement": "phosphorylation of ZAP70/Syk and ERK1/2", "setting": "pZAP70/Syk and pERK1/2", "result": "increased the phosphorylation"},
      {"measurement": "NK cell cytotoxicity against K562, NK cells cultured alone", "setting": "K562", "result": "Neither anti-TIGIT nor catalase had any effect"},
      {"measurement": "NK cell cytotoxicity against K562 after co-culture with MDSCs", "setting": "K562; 5 days, 4 hours 51Cr release", "result": "completely reversed the suppressive effect"}
    ]}
  ]
}
